Assay results from paper PMC10122656, “Siglec-6 mediates the uptake of extracellular vesicles through a noncanonical glycolipid binding pocket” (Nature Communications, 2023).
Several values for one entry are separate records, joined by “and”; a condition that tells them apart may be missing. Identical values can stand only once.

What was measured:
Siglec-7-Fc R124A = target: T1, Siglec-7-Fc R124A (Homo sapiens, UniProt Q9Y286, R124A); experiment: Ganglioside ELISA; format: binding; settings: Figure 2c, replicates
T1 construct: the Siglecs as Fc chimeras; made in house; host or cells: WT CHO cells
Description: (§1) Siglec-Fc constructs designed by Rodrigues et al.[30] were used in this work. Siglec-Fc constructs were expressed using WT CHO cells in cell culture media as described above with 1% HEPES. Cells incubated as described above for one-week post confluency. The supernatant was harvested and stored at 4 °C.
(§2) The purification was heavily inspired by Rodrigues et al.[30]. The purification of the Siglec-Fcs from supernatant began with Ni^2+ affinity chromatography using an AKTA FPLC equipped with a HisTrap Excel column (GE). The column was equilibrated with fifteen column volumes (CVs) of equilibrium buffer (500 mM NaCl, 20 mM NaPO4H2, pH 7.4). The Siglec-Fc containing supernatant was then loaded in its entirety onto the column. The column was then washed with fifteen CVs of wash buffer (500 mM NaCl, 30 mM imidazole, 20 mM NaPO4H2, pH 7.4). The Siglec-Fc was then eluted in 20 in 1 mL fractions with twenty CVs of elution buffer (500 mM NaCl, 500 mM imidazole, 20 mM NaPO4H2, pH 7.4). Fractions containing Siglec-Fc were compiled and then prepared for the next stage of purification by diluting the fractions 1:4 with buffer W (100 mM Tris–HCl, 150 mM NaCl, 1 mM EDTA, pH 8.0). A Strep-Tactin column (IBA life sciences) was washed with fifteen CVs of buffer W. The Siglec-Fc-buffer W solution was then loaded in its entirety onto the column. The bound Siglec-Fc was then washed with fifteen CVs of buffer W. Siglec-Fc was eluted from the column with 15 column volumes of buffer E (100 mM Tris–HCl, 150 mM NaCl, 1 mM EDTA, 10 mM d-Desthiobiotin, pH 8.0). Fractions containing Siglec-Fc were pooled and dialyzed against PBS to remove any d-Desthiobiotin. After dialysis, Siglec-Fcs were concentrated using an ultra-centrifugal device (30 kDa MWCO) and aliquoted into 5 µg aliquots, and frozen. The Siglec-Fcs were then lyophilized overnight, and the lyophilized Siglec-Fcs were stored at −20 °C.
(§3) Our ELISA approach was carried out similarly to previous work by Rapoport[12] and Yamakawa[44]. Ganglioside ethanol solutions (10 µM) were prepared and then transferred in 50 µL increments to a 96-well microplate. The ethanol was removed by drying the plates overnight at room temperature. The plates were then washed with PBS, dried, and then blocked with 5% (m/V) BSA PBS for 1 h. The plates were then washed with PBS and then 2 µg/mL Siglec-Fc precomplexed to Strep-Tactin (2 Siglec-Fc:1 Strep-Tactin monomer) horse radish peroxidase was added to the microplate. The complex was incubated with the plate at room temperature for 2 h. The unbound complexes were then removed by washing in PBS and the plate was developed with Sera care TMB solution. The amount of binding was then quantified by using the background (microplate well with no ligand) subtracted absorbance at 450 nm using a Molecular Devices SpectraMAX ® iD5.

Siglec-1-Fc WT = Siglec-1-Fc WT (Homo sapiens, UniProt Q9BZZ2); experiment: Ganglioside ELISA; format: binding; settings: Figure 2c, replicates
Description: as §1, §2, §3

R122A Siglec-6-Fc = target: T2, R122A Siglec-6-Fc (Homo sapiens, UniProt O43699, R122A); experiment: Ganglioside ELISA; format: binding; settings: Figure 2c, replicates
T2 construct: the Siglecs as Fc chimeras; made in house; host or cells: WT CHO cells
Description: as §1, §2, §3

Siglec-7-Fc WT = target: T3, Siglec-7-Fc WT (Homo sapiens, UniProt Q9Y286); experiment: Ganglioside ELISA; format: binding; settings: Figure 2c, replicates
T3 construct: the Siglecs as Fc chimeras; made in house; host or cells: WT CHO cells
Description: as §1, §2, §3

Siglec-6-Fc WT = target: T4, Siglec-6-Fc WT (Homo sapiens, UniProt O43699); experiment: Ganglioside ELISA; format: binding; settings: for ganglioside ELISA signal, Siglec-6 WT: Figure 2c, replicates; for ELISA recognition of adsorbed ganglioside by Siglec-6 (in words): ganglioside adsorbed to microplate, outside a bilayer
T4 construct: the Siglecs as Fc chimeras; made in house; host or cells: WT CHO cells
Description: as §1, §2, §3

WT Siglec-1 CHO cells = target: T5, WT Siglec-1 CHO cells (Homo sapiens, UniProt Q9BZZ2); experiment: Cell assay (liposome/EV binding, flow cytometry); format: cell-based; parameters: GM1 liposome binding to Siglec-1 CHO cells, flow cytometry (Fig. 1b) / Binding of liposomes with increasing ganglioside content against Siglec-1 CHO cells (Fig. 1c) / Liposome binding to Siglec-1-expressing CHO cells in the cell assay (Fig. 1f): unit not given here; settings: for Binding of liposomes with increasing ganglioside content against Siglec-1 CHO cells (Fig. 1c) / log10(MFI AF647) of GLL relative to log10(MFI AF647) of the same GLL against UT CHO cells (Fig. 2a): replicates; for log10(MFI AF647) of GLL relative to log10(MFI AF647) of the same GLL against UT CHO cells (Fig. 2a): Sig-1 WT, 3 mol% ganglioside liposomes
T5 construct: expressed in transfected cells
Outline: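 Extruded PEGylated DSPC/cholesterol liposomes (100 nm filter; 130 ± 35 nm) bearing Siglec ligand and AF647 lipids. Cells + 50 µM liposome or 50 µg/mL EV, DMEM F12/5% FBS, 37 °C, 30 min; washed; anti-Siglec 1:250, ice 30 min; flow, Siglec+ gate.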

[1] = system: untransfected (UT) CHO cells; experiment: Cell assay (liposome/EV binding, flow cytometry); format: cell-based, Chinese Hamster; settings: UT; 3 mol% ganglioside liposomes; replicates
Outline: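 Cells are incubated for 30 min at 37 °C with ligand-displaying liposomes (50 µM lipid) or EVs (50 µg/mL protein) in DMEM F12 containing 5% FBS. After washing and anti-Siglec staining on ice, liposome binding is quantified by flow cytometry within the Siglec-positive population.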

T4 sequence (O43699 27-347 limits assumed): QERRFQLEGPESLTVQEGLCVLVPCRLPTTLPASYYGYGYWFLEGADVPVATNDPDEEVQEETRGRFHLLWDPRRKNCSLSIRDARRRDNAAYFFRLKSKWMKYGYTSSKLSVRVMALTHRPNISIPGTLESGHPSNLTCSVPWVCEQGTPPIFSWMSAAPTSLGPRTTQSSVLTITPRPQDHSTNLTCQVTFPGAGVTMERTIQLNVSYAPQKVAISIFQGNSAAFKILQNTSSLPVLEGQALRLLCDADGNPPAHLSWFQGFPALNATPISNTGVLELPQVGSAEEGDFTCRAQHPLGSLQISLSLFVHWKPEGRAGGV
T1 sequence (Q9Y286 19-353 R124A limits assumed): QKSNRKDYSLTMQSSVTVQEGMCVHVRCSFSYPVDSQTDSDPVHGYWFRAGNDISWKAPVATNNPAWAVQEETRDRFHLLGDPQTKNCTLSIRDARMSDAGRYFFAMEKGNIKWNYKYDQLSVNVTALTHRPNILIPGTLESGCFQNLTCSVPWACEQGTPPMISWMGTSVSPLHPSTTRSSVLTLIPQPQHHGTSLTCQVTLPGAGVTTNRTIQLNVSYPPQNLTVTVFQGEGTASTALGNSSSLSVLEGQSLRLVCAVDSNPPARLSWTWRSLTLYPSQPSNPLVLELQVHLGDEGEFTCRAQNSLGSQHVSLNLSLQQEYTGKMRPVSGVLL
Chain of Siglec-1-Fc WT (Q9BZZ2 20-136 limits assumed): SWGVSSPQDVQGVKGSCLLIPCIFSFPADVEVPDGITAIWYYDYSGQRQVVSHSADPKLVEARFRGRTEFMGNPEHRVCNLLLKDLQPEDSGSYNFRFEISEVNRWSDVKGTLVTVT
T3 sequence (Q9Y286 19-353 limits assumed): as the sequence (Q9Y286 19-353 R124A limits assumed) above, with A106R counted along it
T5 sequence (Q9BZZ2 20-1709): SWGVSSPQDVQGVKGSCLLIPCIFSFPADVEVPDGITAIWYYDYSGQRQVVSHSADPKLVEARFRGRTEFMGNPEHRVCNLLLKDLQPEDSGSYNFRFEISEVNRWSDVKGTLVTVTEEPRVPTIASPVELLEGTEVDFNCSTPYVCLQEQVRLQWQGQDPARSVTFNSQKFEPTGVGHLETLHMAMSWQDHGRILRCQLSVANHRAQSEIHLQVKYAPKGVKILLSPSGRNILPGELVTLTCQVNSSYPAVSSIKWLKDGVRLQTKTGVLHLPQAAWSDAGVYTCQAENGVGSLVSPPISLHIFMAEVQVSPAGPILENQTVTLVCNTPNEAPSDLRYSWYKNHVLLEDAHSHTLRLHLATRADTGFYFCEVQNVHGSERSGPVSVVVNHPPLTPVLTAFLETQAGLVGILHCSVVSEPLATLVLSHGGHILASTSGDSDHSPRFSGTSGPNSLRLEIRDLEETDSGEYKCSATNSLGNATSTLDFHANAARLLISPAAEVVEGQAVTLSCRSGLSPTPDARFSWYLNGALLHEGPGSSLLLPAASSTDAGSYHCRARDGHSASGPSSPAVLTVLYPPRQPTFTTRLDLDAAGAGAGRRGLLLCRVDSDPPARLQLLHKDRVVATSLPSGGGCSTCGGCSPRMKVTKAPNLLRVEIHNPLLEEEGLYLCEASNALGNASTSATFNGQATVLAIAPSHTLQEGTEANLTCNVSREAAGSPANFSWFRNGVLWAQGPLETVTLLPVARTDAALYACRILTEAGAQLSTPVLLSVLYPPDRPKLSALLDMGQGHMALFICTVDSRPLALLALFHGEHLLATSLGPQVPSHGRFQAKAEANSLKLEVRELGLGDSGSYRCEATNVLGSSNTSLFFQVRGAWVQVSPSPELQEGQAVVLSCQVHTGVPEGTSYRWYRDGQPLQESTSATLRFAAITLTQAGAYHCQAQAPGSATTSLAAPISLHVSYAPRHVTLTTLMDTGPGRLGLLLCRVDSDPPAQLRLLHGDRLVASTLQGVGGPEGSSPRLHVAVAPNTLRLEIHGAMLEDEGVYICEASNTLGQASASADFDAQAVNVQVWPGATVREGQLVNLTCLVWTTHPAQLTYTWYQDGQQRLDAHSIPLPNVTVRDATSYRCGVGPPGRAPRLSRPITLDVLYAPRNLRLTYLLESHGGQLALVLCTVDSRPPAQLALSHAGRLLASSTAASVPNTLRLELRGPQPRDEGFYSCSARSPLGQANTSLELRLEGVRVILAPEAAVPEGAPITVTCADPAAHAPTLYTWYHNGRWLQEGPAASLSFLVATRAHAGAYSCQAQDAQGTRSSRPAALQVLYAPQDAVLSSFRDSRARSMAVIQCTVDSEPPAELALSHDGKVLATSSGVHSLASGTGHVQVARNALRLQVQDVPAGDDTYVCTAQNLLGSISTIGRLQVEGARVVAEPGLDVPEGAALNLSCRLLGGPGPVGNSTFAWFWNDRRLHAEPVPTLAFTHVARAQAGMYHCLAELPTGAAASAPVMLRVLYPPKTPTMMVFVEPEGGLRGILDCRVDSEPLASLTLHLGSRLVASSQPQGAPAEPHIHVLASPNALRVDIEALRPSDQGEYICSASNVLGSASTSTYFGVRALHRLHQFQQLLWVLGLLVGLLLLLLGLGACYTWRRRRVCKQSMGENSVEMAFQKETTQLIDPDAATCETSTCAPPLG
T2 sequence (O43699 27-347 R122A limits assumed): as the sequence (O43699 27-347 limits assumed) above, with R96A counted along it

| Substance | ganglioside ELISA signal, Siglec-7 R (Siglec-7-Fc R124A) | ganglioside ELISA signal, Siglec-1 WT (Siglec-1-Fc WT) | ganglioside ELISA signal, Siglec-6 R (R122A Siglec-6-Fc) | ganglioside ELISA signal, Siglec-7 WT (Siglec-7-Fc WT) | ganglioside ELISA signal, Siglec-6 WT (Siglec-6-Fc WT) | ELISA recognition of adsorbed ganglioside by Siglec-6 (in words) (Siglec-6-Fc WT) | Binding of liposomes with increasing ganglioside content against Siglec-1 CHO cells (Fig. 1c) (WT Siglec-1 CHO cells; 0.0187 Ligand/nm2) | Binding of liposomes with increasing ganglioside content against Siglec-1 CHO cells (Fig. 1c) (WT Siglec-1 CHO cells; 0.056 Ligand/nm2) | Binding of liposomes with increasing ganglioside content against Siglec-1 CHO cells (Fig. 1c) (WT Siglec-1 CHO cells; 0.0933 Ligand/nm2) | Binding of liposomes with increasing ganglioside content against Siglec-1 CHO cells (Fig. 1c) (WT Siglec-1 CHO cells; 0.187 Ligand/nm2) | Binding of liposomes with increasing ganglioside content against Siglec-1 CHO cells (Fig. 1c) (WT Siglec-1 CHO cells; 0.373 Ligand/nm2) | log10(MFI AF647) of GLL relative to log10(MFI AF647) of the same GLL against UT CHO cells (Fig. 2a) (WT Siglec-1 CHO cells) | trend of GLL binding to Siglec-1 CHO cells with ganglioside content (WT Siglec-1 CHO cells; ganglioside titrated in GLLs) | log10(MFI AF647) of GLL relative to log10(MFI AF647) of the same GLL against UT CHO cells (Fig. 2a) [1] |
| --- | --- | --- | --- | --- | --- | --- | --- | --- | --- | --- | --- | --- | --- | --- |
| GM3 | -0.02 and 0 | 0.99 and 1.04 and 1.15 and 1.05 | 0.34 and 0.37 and 0.41 and 0.4 | 0.61 and 0.6 and 0.68 and 0.7 | 0.27 and 0.3 and 0.26 | interacted weakly | 0 | 0.02 | 0.04 | 0.13 (2×) and 0.12 and 0.14 and 0.16 (4×) | 0.33 and 0.36 and 0.26 | 0.19 and 0.16 and 0.23 and 0.17 | progressive increase in GLL binding up to 20 mol% | 0.01 (2×) and -0.01 and 0 |
| GM4 | -0.01 and 0 and -0.02 | 0.62 and 0.66 and 0.72 and 0.59 | 0.26 and 0.23 and 0.24 and 0.28 | 0.52 and 0.45 and 0.53 and 0.58 | 0.22 and 0.25 and 0.27 and 0.23 | interacted weakly | – | – | – | – | – | 0.04 and 0.02 (2×) and -0.02 | – | 0.02 and -0.01 (2×) and 0 |
| GQ1b | -0.01 and 0 | 0.15 and 0.21 and 0.24 and 0.23 | 0.11 and 0.1 and 0.13 and 0.12 | 0.66 and 0.63 and 0.69 | -0.1 and -0.02 and -0.09 and -0.12 | did not recognize | – | – | – | – | – | 0.04 and 0.07 and 0.05 and 0.03 | – | 0.01 and -0.02 (2×) and 0.03 |
| GT1b | -0.01 and -0.02 | 0.25 and 0.3 and 0.43 and 0.46 | 0.11 and 0.08 and 0.1 and 0.13 | 0.49 and 0.55 and 0.5 | -0.04 and -0.01 and -0.09 and -0.11 | did not recognize | – | – | – | – | – | 0.29 (2×) and 0.32 and 0.23 | – | 0 (2×) and 0.01 and -0.01 |
